Test results taken from US12220461B2, “Polypeptide-coupled small molecule compound and antiviral application thereof” (Guangzhou Medical University, priority 2023, dated 2025).
Starred links: 1 amine or outer side, 2 acyl side, 3 side chain; linkers in the order of their positions; H or OH if unused. Non-standard residues stand in square brackets, D forms with d. Residues, ends and D or L forms follow the SMILES beside them. ξ: configuration not given here. *: point of attachment. X1 = Cc1ccc(N[*:1])cc1C(=O)[*:2]; X2 = C[C@@H](N*)c1cccc2ccccc12; ξR = N=C(N)NCCCC(N)C(=O)O; ξL = CC(C)CC(N)C(=O)O; ξS = NC(CO)C(=O)O

Tested on: Omicron BA5.2 variant of SARS-CoV-2
Type: cell-based

For `Cc1ccc(NC(=O)CNC(=O)CNC(=O)C(CCCNC(=N)N)NC(=O)C(CC(C)C)NC(=O)C(CCCNC(=N)N)NC(=O)C(N)CO)cc1C(=O)N[C@H](C)c1cccc2ccccc12` (stereo partly shown) [RG-17] (H-[ξS][ξR][ξL][ξR]GG[X1]-X2), the “IC50 for inhibition of replication of the SARS-CoV-2 genome (qPCR)” value was “lower than GRL0617”.
